Where two headings read alike, the source gives them in different places.
Biological target: T1, Acetylcholinesterase (AChE) (Mus musculus, UniProt P21836)
T1 construct: The assay medium consisted of brain lysate (5 mg/mL) containing different concentrations of testing drugs; from tissue; host or cells: mouse brain lysate
Test: biochemical
Format: biochemical
Conditions: for AChE Inhibitory Activity: ranking by IC50, molar concentration (alkaloids)
Description: The combinations of fangchinoline–coptisine/berberine at concentration ratios of 1:5, 1:2, 1:1, and 2:1 were individually prepared by mixing appropriate volumes of fangchinoline and coptisine or berberine stock solutions. The solutions of fangchinoline–coptisine combinations (with initial system concentrations 4:20, 10:20, 20:20, and 20:10 μM, respectively) were diluted into seven concentrations by DMSO, respectively. The solutions of fangchinoline–berberine combinations (with initial system concentrations 2:10, 5:10, 10:10, and 20:10 μM, respectively) were diluted into seven concentrations by DMSO, respectively. The stocks of tetrandrine, epiberberine, and palmatine were taken appropriately and diluted into six concentrations (with initial system concentrations 30, 100, and 50 μM, respectively) by DMSO, respectively.
The mouse brain lysate (0.1 g/mL, containing 10 mM HEPES (pH 7.4), 1 mM EDTA, 1 mM EGTA, 150 mM NaCl, 0.5% triton X-100, 10 μg/mL leupeptin, 10 μg/mL aprotinin, 10 μg/mL pepstatin, and 50 μg/mL benzamidine HCL) was prepared. AChE enzymatic activity was assayed by 96-well microtiter plate with a final volume of 200 μL, according to the Ellman method. […] Briefly, the mixture of brain lysate containing the testing drugs, Na2HPO4 buffer, and iso-OMPA solution were incubated at 37 °C for 10 min, and then ATCh and DNTB solutions were added. The reaction solution was incubated at 37 °C for 30 min, and AChE activity was determined by measuring the absorbance at 405 nm. To eliminate the drug–solvent influence on AChE enzymatic activity, the concentration of DMSO was controlled at 0.5% in the 200 μL reaction volume. In order to correct for color interference at 405 nm, a background color contrast group without brain lysate and a drug color contrast group without brain lysate were set, respectively. […] Tacrine was used as a positive control. Protein concentrations were measured with a kit from Bio-Rad (Hercules, CA, USA).

T1 sequence (P21836 32-614): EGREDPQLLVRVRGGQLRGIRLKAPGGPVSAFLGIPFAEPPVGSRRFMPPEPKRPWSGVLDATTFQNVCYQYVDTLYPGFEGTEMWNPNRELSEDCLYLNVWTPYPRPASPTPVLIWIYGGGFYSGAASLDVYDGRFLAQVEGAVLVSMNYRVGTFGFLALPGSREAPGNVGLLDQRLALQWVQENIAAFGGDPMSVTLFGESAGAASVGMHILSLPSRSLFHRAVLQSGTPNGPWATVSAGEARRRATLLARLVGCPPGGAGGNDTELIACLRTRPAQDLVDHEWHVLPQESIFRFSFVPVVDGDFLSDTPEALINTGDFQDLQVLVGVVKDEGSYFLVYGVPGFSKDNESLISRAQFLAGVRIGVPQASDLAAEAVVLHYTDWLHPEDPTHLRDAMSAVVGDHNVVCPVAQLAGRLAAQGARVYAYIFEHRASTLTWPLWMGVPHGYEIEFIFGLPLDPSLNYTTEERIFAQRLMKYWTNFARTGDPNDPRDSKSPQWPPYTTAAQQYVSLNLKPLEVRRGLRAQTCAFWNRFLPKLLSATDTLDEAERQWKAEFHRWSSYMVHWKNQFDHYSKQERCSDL

SMILES	IC50	AChE Inhibitory Activity	IC50 (single alkaloids, mouse brain lysate, Mean ± SEM, n = 3, read-out: IC50)	AChE inhibitory potency (mouse brain lysate, result in words)
COc1ccc2cc3[n+](cc2c1OC)CCc1cc2c(cc1-3)OCO2 [Berberine]	2.33 ± 0.16 µM	+++ (for molar concentration, “+++”, “++”, and “+” represent IC50 values of 1–5, 5–10 and 10–20 μM, respectively)		
c1c2c(cc3c1OCO3)-c1cc3ccc4c(c3c[n+]1CC2)OCO4 [Coptisine]	13.5 ± 1.48 µM	+ (for molar concentration, “+++”, “++”, and “+” represent IC50 values of 1–5, 5–10 and 10–20 μM, respectively)		
COc1cc2c(cc1OC)-c1cc3ccc4c(c3c[n+]1CC2)OCO4 [Epiberberine]		+ (for molar concentration, “+++”, “++”, and “+” represent IC50 values of 1–5, 5–10 and 10–20 μM, respectively)	18.7 ± 0.83 µM	
COc1ccc2cc1Oc1ccc(cc1)C[C@H]1c3cc(c(OC)cc3CCN1C)Oc1c(O)c(OC)cc3c1[C@H](C2)N(C)CC3 [Fangchinoline]	2.17 ± 0.05 µM	+++ (for molar concentration, “+++”, “++”, and “+” represent IC50 values of 1–5, 5–10 and 10–20 μM, respectively)		
COc1cc2c(cc1OC)-c1cc3ccc(OC)c(OC)c3c[n+]1CC2 [Palmatine]	6.52 ± 0.84 µM	++ (for molar concentration, “+++”, “++”, and “+” represent IC50 values of 1–5, 5–10 and 10–20 μM, respectively)		
COc1ccc2cc1Oc1ccc(cc1)C[C@H]1c3cc(c(OC)cc3CCN1C)Oc1c(OC)c(OC)cc3c1[C@H](C2)N(C)CC3 [Tetrandrine]		−		did not show AChE inhibitory potency

Source: publication PMC6943709, “Synergistic Inhibition of Acetylcholinesterase by Alkaloids Derived from Stephaniae Tetrandrae Radix, Coptidis Rhizoma and Phellodendri Chinensis Cortex” (Molecules, 2019)
